Experimental findings from patent publication US5760013A, “Thymidylate analogs and the use thereof” (National Science Council, priority 1996, dated 1998) are described below.

≈ marks a conversion by molar mass, not a printed value. Read-outs that look alike come from different tables or passages of the source. Some results are limits rather than exact numbers.

One data set concerns MT4 cell. The data set can be described thus: Cellular toxicity in uninfected MT4 cells. The note with it: Homo sapiens. In kind it is cell-based. As to the method: Toxicity of these compounds was evaluated by their ability to cause morphological changes in cells at different concentrations.
^a Inhibitory concentrations (IC50) represent the average of
triplicate determinations;
^b Concentration of the compound required to reduce the number of
viable uninfected cells by 50%; and […]

A further data set relates to HIV-1(III B). In words: Inhibition of cytopathogenicity of HIV-1(IIIB) in MT4 cells, cell-protection assay. It counts as cell-based, human immunodeficiency virus type 1 (HIV-1).
The nature of data set [1]: Determination of solubility in phosphate buffer (UV absorbance). It counts as physicochemical. The settings on record: for water solubility, in words: compared with AZT.
Description: Determination of Solubility. Each compound (70 mg) listed in Table 1 was agitated in a 25-mL volumetric flask with phosphate buffer (0.10M, 5.0 mL) for 20 h.
The mark [2] stands for this setting: uninfected MT4 cells, average of triplicate determinations, read-out: IC50 MT4 cell (concentration required to reduce the number of viable uninfected cells by 50%).
[3] abbreviates: phosphate buffer (0.10M), agitated 20 h.
Where [4] appears, read: Human immunodeficiency virus 1, cytopathogenicity in MT4 cells, average of triplicate determinations, read-out: IC50 HIV-1(III B).

With `Cc1cn([C@H]2C[C@H](N=[N+]=[N-])[C@@H](CO)O2)c(=O)[nH]c1=O` [AZT, 3'-Azido-3'-deoxythymidine, reference compound], the IC50 with MT4 cell (MT4, read-out: IC50 MT4 cell (concentration required to reduce the number of viable uninfected cells by 50%)) amounted to 57.3 µg/mL (≈ 214 µM); with HIV-1(III B) (Human immunodeficiency virus 1, MT4, read-out: IC50 HIV-1(III B)), 0.02 µg/mL (≈ 0.0748 µM).
Turning to `COC(=O)[C@H](C)NP(=O)(C[C@H]1O[C@@H](n2cc(C)c(=O)[nH]c2=O)C[C@@H]1F)O[C@H]1C[C@H](n2cc(C)c(=O)[nH]c2=O)O[C@@H]1CO` (stereo partly drawn) [Compound IX, (2R,4S,5R)-1-[4-Fluorotetrahydro-5-[[(3'-O-thymidinyl)(methoxy-L-alaninyl)-phosphinylidene]methyl]-2-furyl]thymine], the IC50 with MT4 cell (setting [2]) worked out at 180 µg/mL (≈ 292 µM); in the data set with HIV-1(III B) (setting [4]) it was 0.34 µg/mL (≈ 0.551 µM). Also, in data set [1] (setting [3]), the “solubility in H2 O” value amounted to 8790 µg/mL (≈ 14200 µM).
In the case of `Cc1cn([C@H]2C[C@H](F)[C@@H](CP(=O)(O)O)O2)c(=O)[nH]c1=O` [Compound V, 3'-Fluoro-3',5'-dideoxythymidine-5'-phosphonic acid], the IC50 is 98.7 µg/mL (≈ 320 µM) in the data set on MT4 cell (setting [2]) and 11.8 µg/mL (≈ 38.3 µM) in the data set on HIV-1(III B) (setting [4]). The “water solubility, in words” value in data set [1] is “higher than that of AZT”. Besides, the “solubility in H2 O” value in data set [1] (setting [3]) was determined as 12260 µg/mL (≈ 39800 µM).
For `Cc1cn([C@H]2C[C@H](N=[N+]=[N-])[C@@H](CP(=O)(O)O)O2)c(=O)[nH]c1=O` [Compound VI, 3'-Azido-3',5'-dideoxythymidine-5'-phosphonic Acid], the IC50 came to 115 µg/mL (≈ 346 µM) in the data set on MT4 cell (setting [2]) and 7.68 µg/mL (≈ 23.2 µM) in the data set with HIV-1(III B) (setting [4]). Besides, in data set [1] (0.10 m phosphate buffer, aqueous buffer, phosphate buffer (0.10M), agitated 20 h, read-out: solubility in H2 O), the solubility at 20 h was determined as 11100 µg/mL (≈ 33600 µM).
In the case of `Cc1cn([C@H]2C[C@H](OP(=O)(O)C[C@H]3O[C@@H](n4cc(C)c(=O)[nH]c4=O)C[C@@H]3F)[C@@H](CO)O2)c(=O)[nH]c1=O` [Compound VII, (2R,4S,5R)-1-[4-Fluorotetrahydro-5-[(3'-O-thymidinyl-phosphinico)methyl]-2-furyl]thymine], the figures for the IC50 in the data set with MT4 cell (setting [2]) and in the data set on HIV-1(III B) (setting [4]) were 79 µg/mL (≈ 148 µM) and 3.04 µg/mL (≈ 5.71 µM), respectively. For the same compound, the “solubility in H2 O” value in data set [1] (setting [3]) came to 3980 µg/mL (≈ 7480 µM).
On the same counts, the results for `COC(=O)[C@H](C)NP(=O)(C[C@H]1O[C@@H](n2cc(C)c(=O)[nH]c2=O)C[C@@H]1N=[N+]=[N-])O[C@H]1C[C@H](n2cc(C)c(=O)[nH]c2=O)O[C@@H]1CO` (stereo partly drawn) [Compound X, (2R,4S,5R)-1-[4-Azidotetrahydro-5-[[(3'-O-thymidinyl)(methoxy-L-alaninyl)-phosphinylidene]methyl]-2-furyl]thymine] are 200 µg/mL (≈ 312 µM), 0.61 µg/mL (≈ 0.952 µM) and 9130 µg/mL (≈ 14300 µM).
On the same counts, the results for `COC(=O)[C@@H](C)NP(=O)(C[C@H]1O[C@@H](n2cc(C)c(=O)[nH]c2=O)C[C@@H]1F)O[C@H]1C[C@H](n2cc(C)c(=O)[nH]c2=O)O[C@@H]1CO` (stereo partly drawn) [Compound XI, (2R,4S,5R)-1-[4-Fluorotetrahydro-5-[[(3'-O-thymidinyl)(methoxy-D-alaninyl)-phosphinylidene]methyl]-2-furyl]thymine] are 462 µg/mL (≈ 748 µM), 0.5 µg/mL (≈ 0.81 µM) and 8920 µg/mL (≈ 14400 µM).
`COC(=O)[C@@H](C)NP(=O)(C[C@H]1O[C@@H](n2cc(C)c(=O)[nH]c2=O)C[C@@H]1N=[N+]=[N-])O[C@H]1C[C@H](n2cc(C)c(=O)[nH]c2=O)O[C@@H]1CO` (stereo partly drawn) [Compound XII, (2R,4S,5R)-1-[4-Azidotetrahydro-5-[[(3'-O-thymidinyl)(methoxy-D-alaninyl)-phosphinylidene]methyl]-2-furyl]thymine]: the IC50 with MT4 cell (setting [2]) is 458 µg/mL (≈ 714 µM); with HIV-1(III B) (setting [4]), 0.76 µg/mL (≈ 1.19 µM). Further, the “water solubility, in words” value in data set [1] was “higher than that of AZT”. Also, in data set [1] (setting [3]), the “solubility in H2 O” value was 9200 µg/mL (≈ 14400 µM).
With `Cc1cn([C@H]2CC[C@@H](CP(=O)(O)O)O2)c(=O)[nH]c1=O` [III, 3',5'-Dideoxythymidine-5'-phosphonic acid], the IC50 is 128 µg/mL (≈ 443 µM) in the data set on MT4 cell (setting [2]) and 23.5 µg/mL (≈ 81 µM) in the data set with HIV-1(III B) (setting [4]).
For `Cc1cn([C@H]2C[C@H](C#N)[C@@H](CP(=O)(O)O)O2)c(=O)[nH]c1=O` [IV, 3'-Cyano-3',5'-dideoxythymidine-5'-phosphonic acid] the same measures were 69.9 µg/mL (≈ 222 µM) and over 128 µg/mL.
For the compound `Cc1cn([C@H]2C[C@H](N=[N+]=[N-])[C@@H](CP(=O)(O)O[C@H]3C[C@H](n4cc(C)c(=O)[nH]c4=O)O[C@@H]3CO)O2)c(=O)[nH]c1=O` [VIII, (2R,4S,5R)-1-[4-Azidotetrahydro-5-[(3'-O-thymidinyl-phosphinico)methyl]-2-furyl]thymine], the IC50 with MT4 cell (setting [2]) was 99.5 µg/mL (≈ 179 µM); with HIV-1(III B) (setting [4]), 1.92 µg/mL (≈ 3.46 µM). The “solubility in H2 O” value in data set [1] (setting [3]) was found to be 3240 µg/mL (≈ 5830 µM).
